“And” between values parts separate entries of the source, which are not always exact repeats. Identical values can stand only once. Inconclusive results and toxic doses are left out.
Tested on: BDF1 mice, L1210 leukemia sc, survival T/C
Experiment: NCI In Vivo Anticancer Drug Screen. Data for tumor model L1210 Leukemia (subcutaneous) in B6D2F1 (BDF1) mice
Conditions: endpoint: median survival time, vehicle: water, higher = longer survival
In short: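 Transplantable tumor-bearing mice; survival or tumor size recorded; result = T/C, treated vs vehicle control.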

## O=P1(NCCCl)OCCCN1CCCl (centres undefined)
dose: 7.8 mg/kg/injection, schedule: Q03HX008 (ip)
  T/C: 166 % of control
dose: 7.8 mg/kg/injection, schedule: Q03HX008 (sc)
  T/C: 111 % of control
dose: 15.62 mg/kg/injection, schedule: Q03HX008 (ip)
  T/C: 155 % of control
dose: 15.62 mg/kg/injection, schedule: Q03HX008 (sc)
  T/C: 122 % of control
dose: 23.0 mg/kg/injection, schedule: Q03HX008 (sc)
  T/C: 178 % of control
dose: 31.25 mg/kg/injection, schedule: Q03HX008 (ip)
  T/C: 166 % of control
dose: 31.25 mg/kg/injection, schedule: Q03HX008 (sc)
  T/C: 166 % of control
dose: 39.0 mg/kg/injection, schedule: Q01DX009 (sc)
  T/C: 168 % of control
dose: 39.0 mg/kg/injection, schedule: Q01DX015 (ip)
  T/C: 194 % of control and 197 % of control
dose: 39.0 mg/kg/injection, schedule: Q03HX008 (sc)
  T/C: 210 % of control
dose: 62.5 mg/kg/injection, schedule: Q03HX008 (ip)
  T/C: 611 % of control
dose: 62.5 mg/kg/injection, schedule: Q03HX008 (sc)
  T/C: 611 % of control
dose: 65.0 mg/kg/injection, schedule: Q01DX009 (sc)
  T/C: 189 % of control
dose: 65.0 mg/kg/injection, schedule: Q01DX015 (ip)
  T/C: 236 % of control
dose: 65.0 mg/kg/injection, schedule: Q03HX008 (sc)
  T/C: 278 % of control
dose: 108.0 mg/kg/injection, schedule: Q01DX001 (sc)
  T/C: 111 % of control and 114 % of control
dose: 108.0 mg/kg/injection, schedule: Q01DX009 (sc)
  T/C: 236 % of control
dose: 108.0 mg/kg/injection, schedule: Q01DX015 (ip)
  T/C: 178 % of control and 187 % of control
dose: 108.0 mg/kg/injection, schedule: Q03HX008 (sc)
  T/C: 115 % of control
dose: 108.0 mg/kg/injection, schedule: Q07DX003 (ip)
  T/C: 210 % of control and 218 % of control
dose: 108.0 mg/kg/injection, schedule: Q08DX002 (sc)
  T/C: 173 % of control
dose: 108.0 mg/kg/injection, schedule: Q09DX003 (sc)
  T/C: 154 % of control and 155 % of control
dose: 125.0 mg/kg/injection, schedule: Q01DX001 (ip)
  T/C: 155 % of control
dose: 125.0 mg/kg/injection, schedule: Q01DX001 (sc)
  T/C: 150 % of control
dose: 130.0 mg/kg/injection, schedule: Q01DX001 (sc)
  T/C: 154 % of control and 157 % of control
dose: 130.0 mg/kg/injection, schedule: Q04DX003 (sc)
  T/C: 189 % of control and 197 % of control
dose: 180.0 mg/kg/injection, schedule: Q01DX001 (ip)
  T/C: 183 % of control and 184 % of control
dose: 180.0 mg/kg/injection, schedule: Q01DX015 (ip)
  T/C: 156 % of control and 157 % of control
dose: 180.0 mg/kg/injection, schedule: Q03HX008 (sc)
  T/C: 105 % of control
dose: 180.0 mg/kg/injection, schedule: Q07DX003 (ip)
  T/C: 252 % of control and 253 % of control
dose: 180.0 mg/kg/injection, schedule: Q08DX002 (sc)
  T/C: 215 % of control
dose: 180.0 mg/kg/injection, schedule: Q09DX003 (sc)
  T/C: 244 % of control and 245 % of control
dose: 216.0 mg/kg/injection, schedule: Q01DX001 (sc)
  T/C: 184 % of control and 185 % of control
dose: 216.0 mg/kg/injection, schedule: Q04DX003 (sc)
  T/C: 210 % of control and 216 % of control
dose: 250.0 mg/kg/injection, schedule: Q01DX001 (ip)
  T/C: 205 % of control
dose: 250.0 mg/kg/injection, schedule: Q01DX001 (sc)
  T/C: 177 % of control
dose: 256.0 mg/kg/injection, schedule: Q01DX001 (sc)
  T/C: 192 % of control and 195 % of control
dose: 300.0 mg/kg/injection, schedule: Q01DX001 (ip)
  T/C: 205 % of control
dose: 300.0 mg/kg/injection, schedule: Q01DX009 (sc)
  T/C: 157 % of control
dose: 300.0 mg/kg/injection, schedule: Q07DX003 (ip)
  T/C: 273 % of control and 279 % of control
dose: 300.0 mg/kg/injection, schedule: Q08DX002 (sc)
  T/C: 100 % of control
dose: 300.0 mg/kg/injection, schedule: Q09DX003 (sc)
  T/C: 244 % of control and 247 % of control
dose: 320.0 mg/kg/injection, schedule: Q01DX001 (sc)
  T/C: 212 % of control and 220 % of control
dose: 360.0 mg/kg/injection, schedule: Q01DX001 (sc)
  T/C: 226 % of control and 229 % of control
dose: 360.0 mg/kg/injection, schedule: Q04DX003 (sc)
  T/C: 242 % of control
dose: 400.0 mg/kg/injection, schedule: Q01DX001 (sc)
  T/C: 235 % of control and 249 % of control
dose: 500.0 mg/kg/injection, schedule: Q01DX001 (ip)
  T/C: 242 % of control
dose: 500.0 mg/kg/injection, schedule: Q08DX002 (sc)
  T/C: 121 % of control
dose: 500.0 mg/kg/injection, schedule: Q09DX003 (sc)
  T/C: 116 % of control and 122 % of control
dose: 600.0 mg/kg/injection, schedule: Q01DX001 (sc)
  T/C: 77 % of control
dose: 600.0 mg/kg/injection, schedule: Q04DX003 (sc)
  T/C: 115 % of control and 117 % of control
dose: 625.0 mg/kg/injection, schedule: Q01DX001 (sc)
  T/C: 124 % of control
dose: 833.0 mg/kg/injection, schedule: Q01DX001 (ip)
  T/C: 71 % of control
dose: 1000.0 mg/kg/injection, schedule: Q01DX001 (sc)
  T/C: 63 % of control
